# Patent publication US10633389B2, “CARM1 inhibitors and uses thereof” (Epizyme, Inc., priority 2013, dated 2020)
# Tested on: asymmetric di-methyl PABP1 in RKO cells
# Assay: RKO methylation assay, In Cell Western (ICW) for asymmetric di-methyl PABP1
# Assay type: cell-based
# Conditions: Homo sapiens, RKO, Cellular potencies, ICW PABP1me2a
# Method in brief: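 RKO cells treated with compound for 48 h at 37 °C, then fixed, permeabilized and immunostained for asymmetric di-methyl PABP1, with DRAQ5 as DNA stain. Infrared 700/800 nm signal ratio normalized to DMSO and 20 μM reference-compound controls; IC50 from triplicate wells.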
row,SMILES,IC50 [µM]
1,CNCC(O)COc1cccc(-c2nc(N[C@@H]3CCOC3)c(C)c(N3CCC[C@@H](O)C3)n2)c1 (stereo partly shown) [Example 358-1a],10 to 20
2,CNCC(O)COc1cccc(-c2nc(-c3c(C)noc3C)cc(N3CCN(C(=O)OC)CC3)n2)c1 (stereo not shown) [Example 81-1a],< 5
3,CNCC(O)COc1cccc(-c2nc(SC)cc(N(C)C3CCOCC3)n2)c1 (stereo not shown) [Example 573-1a],10 to 20
4,CNC[C@@H](O)COc1ccc(Cl)c(-c2nc(N[C@@H]3CCN(C)C[C@@H]3F)c(Cl)c(-c3c(C)noc3C)n2)c1 [Example 210-3],< 5
5,CNCC(O)COc1cccc(-c2nc(N[C@H]3CCOC3)cc(-c3c(C)noc3C)n2)c1 (stereo partly shown) [Example 13-1a],5 to 10
6,CNC[C@H](O)COc1ccc(Cl)c(-c2nc(-c3c(C)noc3C)c(C)c(N3CC4(CCN(C5CC5)CC4)C3)n2)c1 [Example 55-3],< 5
7,CNC[C@@H](O)COc1ccc(F)c(-c2nc(N[C@H]3CCN(C(=O)OC)C[C@H]3F)c(C)c(-c3c(C)noc3C)n2)c1 [Example 64-3],< 5
8,CNCC(O)COc1ccc(Cl)c(-c2nc(NC3CC(C)N(C(=O)OC)C(C)C3)c(C)c(-c3c(C)noc3C)n2)c1 (stereo not shown) [Example 46-3],< 5
9,CNCC(O)COc1cccc(-c2nc(NC3CCOC3)c(C)c(N3CCN(CCF)CC3)n2)c1 (stereo not shown) [Example 446-1a],< 5
10,CNC[C@@H](O)COc1ccc(Cl)c(-c2nc(-c3c(C)noc3C)c(C)c(N3CCc4ccncc43)n2)c1 [Example 174-3],< 5
11,CNC[C@H](O)COc1cccc(-c2nc(NC3CCN(C(=O)OC)C(C)C3)c(C)c(-c3c(C)noc3C)n2)c1 (stereo partly shown) [Example 33-3],< 5
12,CCS(=O)(=O)N1CCOC[C@@H]1CNc1nc(-c2cccc(OCC(O)CNC)c2)nc(-c2c(C)nsc2C)c1C (stereo partly shown) [Example 71-3],10 to 20
13,CNCC(O)COc1cccc(-c2nc(-c3ccnc(OC)c3)cc(N(C)C3CCOCC3)n2)c1 (stereo not shown) [Example 541-1a],10 to 20
14,CNCC(O)COc1cc(Cl)cc(-c2nc(Nc3cncnc3)c(C)c(N(C)C3CCOCC3)n2)c1 (stereo not shown) [Example 506-1a],< 5
15,CCOC(=O)N1CCOC[C@@H]1CNc1nc(-c2cc(OC[C@@H](O)CNC)ccc2F)nc(-c2c(C)noc2C)c1C [Example 61-3],< 5
16,CNCC(O)COc1cccc(-c2nc(N[C@@H]3CCOC3)c(C)c(-c3c(C)noc3C)n2)c1 (stereo partly shown) [Example 66-1a],< 5
17,CNCC(O)COc1cccc(-c2nc(N[C@@H]3CCOC3)c(C)c(N3CCCC4(CN(CC(F)F)C4)C3)n2)c1 (stereo partly shown) [Example 469-1a],5 to 10
18,CNC[C@@H](O)COc1ccc(F)c(-c2nc(NC3CCN(C(=O)OC)CC3)c(C)c(-c3c(C)noc3C)n2)c1 [Example 40-3],< 5
19,CNCC(O)COc1cccc(-c2nc(-c3c(C)noc3C)cc(N3C[C@H]4C[C@@H]3CN4S(C)(=O)=O)n2)c1 (stereo partly shown) [Example 100-1a],5 to 10
20,CNCC(O)COc1cc(Cl)cc(-c2nc(-c3ccn4cnnc4c3)c(C)c(N(C)C3CCOCC3)n2)c1 (stereo not shown) [Example 70-1],10 to 20
21,CNCC(O)COc1cc(Cl)cc(-c2nc(-c3ccncc3)cc(N3CCOCC3)n2)c1 (stereo not shown) [Example 632-1a],≥ 20
22,CNCC(O)COc1cccc(-c2nc(N(C)C3CCOCC3)cc(-n3cccn3)n2)c1 (stereo not shown) [Example 542-1a],10 to 20
23,CNC[C@H](O)COc1cccc(-c2nc(NC3CCOCC3)cc(-c3c(C)noc3C)n2)c1 [Example 17-1a],< 5
24,CNC[C@@H](O)COc1ccc(Cl)c(-c2nc(N[C@@H]3CCN(C4CC4)[C@H](C)C3)c(C)c(-c3c(C)noc3C)n2)c1 [Example 139-3],< 5
25,CNC[C@H](O)COc1ccc(F)c(-c2nc(NC3CCN(C(=O)OC)CC3)c(C)c(-c3c(C)noc3C)n2)c1 [Example 26-3],< 5

row,SMILES,IC50 [µM]
1,CCOC(=O)N1CCOC[C@H]1CNc1nc(-c2cc(OC[C@@H](O)CNC)ccc2F)nc(-c2c(C)noc2C)c1C [Example 59-3],< 5
2,CNC[C@@H](O)COc1ccc(F)c(-c2nc(-c3c(C)noc3C)c(C)c(N3Cc4cccc(F)c4C3)n2)c1 [Example 266-3],< 5
3,CNC[C@@H](O)COc1ccc(F)c(-c2nc(-c3c(C)noc3C)cc(N3Cc4cnn(C)c4C3)n2)c1 [Example 275-3],< 5
4,CCO[C@H]1CCC[C@H]1Nc1nc(-c2cc(OC[C@H](O)CNC)ccc2Cl)nc(-c2c(C)noc2C)c1C [Example 242-3],< 5
5,CNCC(O)COc1cccc(-c2nc(N[C@@H]3CCOC[C@@H]3F)c(C)c(-c3c(C)noc3C)n2)c1 (stereo partly shown) [Example 271-1a],< 5
6,CCOC(=O)N1CCC[C@@H]1CNc1nc(-c2cc(OC[C@@H](O)CNC)ccc2Cl)nc(-c2c(C)noc2C)c1C [Example 49-3],< 5
7,CNCC(O)COc1cccc(-c2nc(N[C@H]3CCOC[C@@H]3F)c(C)c(-c3c(C)noc3C)n2)c1 (stereo partly shown) [Example 279-1a],< 5
8,CNCC(O)COc1cccc(-c2nc(OCC3CCN(C(=O)OCc4ccccc4)CC3)c(C)c(-c3c(C)noc3C)n2)c1 (stereo not shown) [Example 259-1a],< 5
9,CCS(=O)(=O)N1CCC(Nc2nc(-c3cc(OC[C@@H](O)CNC)ccc3Cl)nc(-c3c(C)noc3C)c2C)CC1 [Example 67-3],< 5
10,CNC[C@@H](O)COc1ccc(Cl)c(-c2nc(-c3c(C)noc3C)c(C)c(N3Cc4cncnc4C3)n2)c1 [Example 190-3],< 5
11,CNCC(O)COc1cccc(-c2nc(-c3nc(C)cs3)cc(N(C)C3CCOCC3)n2)c1 (stereo not shown) [Example 624-1a],10 to 20
12,CNCC(O)COc1cccc(-c2nc(NC3CCOC(C)C3)c(C)c(-c3c(C)noc3C)n2)c1 (stereo not shown) [Example 239-1a],< 5
13,CNC[C@@H](O)COc1ccc(Cl)c(-c2nc(-c3c(C)noc3C)c(C)c(N3Cc4cc(C)cnc4C3)n2)c1 [Example 296-3],< 5
14,CNCC(O)COc1cc(Cl)cc(-c2nc(NC3CCNCC3)cc(-c3ccncc3)n2)c1 (stereo not shown) [Example 665-1a],≥ 20
15,CNCC(O)COc1cccc(-c2nc(-c3c(C)noc3C)cc(N3CCN(C4CCOCC4)CC3)n2)c1 (stereo not shown) [Example 166-1a],< 5
16,CNCC(O)COc1cccc(-c2nc(NC3CCC3)c(C)c(-c3c(C)noc3C)n2)c1 (stereo not shown) [Example 292-1a],< 5
17,CNC[C@@H](O)COc1ccc(Cl)c(-c2nc(N[C@H]3C[C@@H](OC)C3)c(Cl)c(-c3c(C)noc3C)n2)c1 [Example 216-3],< 5
18,CNCC(O)COc1cccc(-c2nc(NCC3CCN(C(=O)OC)CC3)c(C)c(-c3c(C)noc3C)n2)c1 (stereo not shown) [Example 184-1a],< 5
19,CNCC(O)COc1cccc(-c2nc(C(=O)NC3CCN(C)CC3)cc(-c3c(C)noc3C)n2)c1 (stereo not shown) [Example 160-1a],10 to 20
20,CNCC(O)COc1cccc(-c2nc(OCC3CCNCC3)c(C)c(-c3c(C)noc3C)n2)c1 (stereo not shown) [Example 289-1a],5 to 10
21,CNCC(O)COc1cc(Cl)cc(-c2nc(NC3CCN(C4CC4)CC3)c(C)c(-c3c(C)noc3C)n2)c1 (stereo not shown) [Example 22-3],< 5
22,CNCC(O)COc1cccc(-c2nc(-c3c(C)noc3C)cc(N3C[C@H]4C[C@@H]3CN4)n2)c1 (stereo partly shown) [Example 109-1a],10 to 20
23,CCO[C@H]1CCC[C@@H]1Nc1nc(-c2cc(OC[C@H](O)CNC)ccc2Cl)nc(-c2c(C)noc2C)c1C [Example 222-3],< 5
24,CNC[C@@H](O)COc1ccc(Cl)c(-c2nc(-c3c(C)noc3C)c(C)c(N3CC4(CCN(C5CC5)C4)C3)n2)c1 [Example 176-3],< 5
